Reference: patent US12435085B2, “Crystalline forms and formulations of a VCP/p97 inhibitor” (CASI Pharmaceuticals, Inc., priority 2020, dated 2025)

What was measured:
[1] = Relative humidity (RH) stress of salts; type: physicochemical; conditions: solid in open vial, 10 days at 94% RH
Description: Solids of select Compound 1 salts were exposed to ˜94% RH (ASTM Standard E, 104-85, 1996) for a given period of time by placing the solids into an open vial inside a sealed container. Samples were observed visually for signs of deliquescence after removal from the stress environment.

[2] = biological target: p97 (Homo sapiens, UniProt P55072); assay: p97 inhibition assay (ADP glo luminescence); type: biochemical; conditions: ATP 20 μM, p97 20 nM, 37° C. for 15 min
Sequence of p97 (P55072 whole entry): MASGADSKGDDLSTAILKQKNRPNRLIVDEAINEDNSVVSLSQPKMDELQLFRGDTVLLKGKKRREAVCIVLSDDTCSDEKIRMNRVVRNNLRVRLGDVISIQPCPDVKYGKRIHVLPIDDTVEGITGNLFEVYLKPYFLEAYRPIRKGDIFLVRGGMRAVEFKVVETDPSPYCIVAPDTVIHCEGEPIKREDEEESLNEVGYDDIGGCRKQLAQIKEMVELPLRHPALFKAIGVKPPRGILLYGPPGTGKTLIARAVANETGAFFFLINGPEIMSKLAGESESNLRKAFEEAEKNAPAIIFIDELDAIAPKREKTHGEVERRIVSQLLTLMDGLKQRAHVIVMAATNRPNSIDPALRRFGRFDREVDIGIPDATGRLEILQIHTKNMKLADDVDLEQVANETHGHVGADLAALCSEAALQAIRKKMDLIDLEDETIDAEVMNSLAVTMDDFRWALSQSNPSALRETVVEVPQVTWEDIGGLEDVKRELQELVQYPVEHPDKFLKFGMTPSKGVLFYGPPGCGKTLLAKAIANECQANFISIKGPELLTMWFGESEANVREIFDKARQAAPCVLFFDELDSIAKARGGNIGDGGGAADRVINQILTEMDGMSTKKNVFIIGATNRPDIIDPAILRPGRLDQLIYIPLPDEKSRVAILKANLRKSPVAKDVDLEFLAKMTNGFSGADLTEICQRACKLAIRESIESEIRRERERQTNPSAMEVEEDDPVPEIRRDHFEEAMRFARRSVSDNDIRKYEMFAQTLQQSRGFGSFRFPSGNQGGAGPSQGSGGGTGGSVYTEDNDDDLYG
Procedure: The p97 assay is an assay used to determine inhibitory activity of compounds against the p97 complex. Inhibition of activity of the p97 proteosome complex can enable apoptosis and cause elimination of neoplastic cells (cancer cells). The assay follows that of Christianson in Nat. Cell Biol., (2011) 14:93. The reagents used for the p97 assay include an assay buffer which is a mixture of 50 mM TRIS pH 7.5, 20 mM MgCI˜, 0.02% TX-100, 1 mM DTT and 0.2% (v/v) glycerol. The well plate is a Corning 3674, 384w plate. The identification kit is an ADP glo kit (Promega): stop buffer, detection reagent.
The assay is conducted as follows: • Serial dilute compound in DMSO in a 1:3.33-fold 10 point serial dilution. • In each well of 384w plate add the following reagents: • 0.5 μL compound serial diluted in DMSO (Final Conc. 10%) • 2 μL ATP (Final Conc.=20 μM, diluted in assay buffer) • 2.5 μL p97 (Final Conc.=20 nM, diluted in assay buffer). • Incubate at 37° C. for 15 min. • Add 5 μL of stop buffer, incubate at RT for 40 min. • Add 10 μL of detection reagent, incubate at RT for 30 min. • Read luminescence on Envision plate reader. […]

RH stress: change in appearance/texture (signs of deliquescence, visual) [1]	IC50 [2]	SMILES
no apparent change in appearance/texture	–	Cc1cc2c(C(N)=O)cccc2n1-c1nc2c(c(NCc3ccccc3)n1)CCCN2.O=S(=O)(O)O.O=S(=O)(O)O [Compound 1 sulfate, 1-(4-(benzylamino)-5,6,7,8-tetrahydropyrido[2,3-d]pyrimidin-2-yl)-2-methyl-1H-indole-4-carboxamide sulfuric acid salt (sulfate)]
–	< 30 nM	Cc1cc2c(C(N)=O)cccc2n1-c1nc2c(c(NCc3ccccc3)n1)CCCN2 [Compound 1, 1-(4-(benzylamino)-5,6,7,8-tetrahydropyrido[2,3-d]pyrimidin-2-yl)-2-methyl-1H-indole-4-carboxamide]
no apparent change in appearance/texture	–	Cc1cc2c(C(N)=O)cccc2n1-c1nc2c(c(NCc3ccccc3)n1)CCCN2.Cc1ccc(S(=O)(=O)O)cc1.Cc1ccc(S(=O)(=O)O)cc1 [Compound 1 tosylate, 1-(4-(benzylamino)-5,6,7,8-tetrahydropyrido[2,3-d]pyrimidin-2-yl)-2-methyl-1H-indole-4-carboxamide p-toluenesulfonic acid salt (tosylate)]
no apparent change in appearance/texture	–	Cc1cc2c(C(N)=O)cccc2n1-c1nc2c(c(NCc3ccccc3)n1)CCCN2.Cl.Cl [Compound 1 hydrochloride, 1-(4-(benzylamino)-5,6,7,8-tetrahydropyrido[2,3-d]pyrimidin-2-yl)-2-methyl-1H-indole-4-carboxamide hydrochloric acid salt (hydrochloride)]
